Data: paper PMC9226319, “Peripherally restricted transthyretin-based delivery system for probes and therapeutics avoiding opioid-related side effects” (Nature Communications, 2022)
“And” between values parts separate entries of the source, which are not always exact repeats. Equal values may be shown once.

Key:
[1] = target: purified human TTR (Homo sapiens, UniProt P02766); assay: Fluorescence polarization (FP) binding assay, ligands to TTR in buffer
[2] = target: TTR in human serum (Homo sapiens, UniProt P02766); assay: TTR serum fluorescent probe exclusion (FPE) selectivity assay; type: binding; conditions: ligand 10 µM; for %FPE probe fluorescence: human serum, replicates
[3] = target: human mu-opioid receptors (Homo sapiens, UniProt P35372); assay: biochemical; type: binding
human mu-opioid receptors, sequence (P35372 whole entry): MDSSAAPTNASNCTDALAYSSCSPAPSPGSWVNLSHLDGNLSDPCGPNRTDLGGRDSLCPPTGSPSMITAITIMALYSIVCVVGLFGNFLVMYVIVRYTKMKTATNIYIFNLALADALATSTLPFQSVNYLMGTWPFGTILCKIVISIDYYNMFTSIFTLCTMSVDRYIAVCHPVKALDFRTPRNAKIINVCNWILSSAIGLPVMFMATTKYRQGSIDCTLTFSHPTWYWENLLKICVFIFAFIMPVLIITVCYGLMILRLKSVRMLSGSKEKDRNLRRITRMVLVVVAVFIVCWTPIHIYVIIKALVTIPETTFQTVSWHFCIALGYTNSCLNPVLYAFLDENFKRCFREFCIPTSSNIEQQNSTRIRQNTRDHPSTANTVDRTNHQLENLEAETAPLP

## C=CCN1CC[C@]23c4c5ccc(O)c4O[C@H]2[C@@H](OCc2cn(CCOCCOCCNCCCCCCOc4cc(OCCCc6c(C)n[nH]c6C)cc(C(=O)O)c4)nn2)CC[C@@]3(O)[C@H]1C5 [AG10-L1-Nal]
[1]
  Kd: 485 nM
[1]; log [nM] inhibitor 0.990
  % Fluorescence polarization (mean): 100.000%
[1]; log [nM] inhibitor 1.291
  % Fluorescence polarization (mean): 101.730%
[1]; log [nM] inhibitor 1.592
  % Fluorescence polarization (mean): 105.820%
[1]; log [nM] inhibitor 1.893
  % Fluorescence polarization (mean): 101.210%
[1]; log [nM] inhibitor 2.194
  % Fluorescence polarization (mean): 93.370%
[1]; log [nM] inhibitor 2.495
  % Fluorescence polarization (mean): 87.150%
[1]; log [nM] inhibitor 2.796
  % Fluorescence polarization (mean): 78.760%
[1]; log [nM] inhibitor 3.097
  % Fluorescence polarization (mean): 63.020%
[1]; log [nM] inhibitor 3.398
  % Fluorescence polarization (mean): 50.120%
[1]; log [nM] inhibitor 3.699
  % Fluorescence polarization (mean): 44.570%
[1]; log [nM] inhibitor 4.000
  % Fluorescence polarization (mean): 22.560%
[1]; log [nM] inhibitor […]
  % Fluorescence polarization (mean): 0.000%
[2]; FPE probe 3.6 µM, 3 h reading relative to probe alone, text mean ± s.d., table replicates
  % TTR occupancy in human serum: 71.5 ± 1.8% and 70.26% and 71.49% and 74.04% and 70.09%
[2]; time 0.000 h
  %FPE probe fluorescence: 0.000%
[2]; time 0.083 h
  %FPE probe fluorescence: 1.080% and 0.767% and -1.456% and -0.892%
[2]; time 0.250 h
  %FPE probe fluorescence: 2.570% and 0.301% and -1.690% and -0.400%
[2]; time 0.500 h
  %FPE probe fluorescence: 1.410% and 3.016% and 1.843% and 4.013%
[2]; time 1.000 h
  %FPE probe fluorescence: 5.261% and 6.236% and 4.568% and 2.982%
[2]; time 1.250 h
  %FPE probe fluorescence: 9.024% and 8.732% and 5.446% and 7.822%
[2]; time 1.500 h
  %FPE probe fluorescence: 10.681% and 11.389% and 3.787% and 9.124%
[2]; time 1.750 h
  %FPE probe fluorescence: 16.590% and 14.034% and 12.392% and 15.982%
[2]; time 2.000 h
  %FPE probe fluorescence: 16.797% and 16.410% and 12.993% and 18.679%
[2]; time 2.250 h
  %FPE probe fluorescence: 24.164% and 18.098% and 17.162% and 21.660%
[2]; time 2.500 h
  %FPE probe fluorescence: 24.735% and 22.591% and 22.580% and 23.970%
[2]; time 2.750 h
  %FPE probe fluorescence: 27.729% and 25.808% and 22.823% and 27.770%
[2]; time 3.000 h
  %FPE probe fluorescence: 29.742% and 28.511% and 25.959% and 29.908%
[2]; time 3.500 h
  %FPE probe fluorescence: 34.408% and 33.995% and 32.949% and 35.412%
[2]; time 3.750 h
  %FPE probe fluorescence: 36.701% and 36.516% and 34.676% and 37.256%
[2]; time 4.000 h
  %FPE probe fluorescence: 39.055% and 39.875% and 38.359% and 40.118%
[2]; time 4.250 h
  %FPE probe fluorescence: 42.939% and 41.758% and 38.579% and 41.416%
[2]; time 4.500 h
  %FPE probe fluorescence: 43.175% and 42.158% and 39.564% and 43.974%
[2]; time 4.750 h
  %FPE probe fluorescence: 49.116% and 47.668% and 46.875% and 46.250%
[2]; time 5.000 h
  %FPE probe fluorescence: 48.320% and 48.257% and 45.947% and 47.487%
[2]; time 5.250 h
  %FPE probe fluorescence: 49.797% and 50.503% and 44.600% and 50.002%
[2]; time 5.500 h
  %FPE probe fluorescence: 51.668% and 52.681% and 50.017% and 50.897%
[2]; time 5.750 h
  %FPE probe fluorescence: 52.829% and 53.093% and 50.389% and 55.989%
[2]; time 6.000 h
  %FPE probe fluorescence: 53.052% and 53.791% and 49.880% and 55.657%
[3]
  fold decrease in mu-opioid receptor binding affinity when TTR was present: 9 fold
  fold higher mu-opioid receptor binding affinity than naloxegol: 3.5 fold
  fold lower mu-opioid receptor binding affinity than naloxone: 3 fold
[3]; binding affinity to mu-opioid receptor (Ki)
  Ki: 0.81 nM
[3]; binding affinity to mu-opioid receptor (Ki) in the presence of TTR
  Ki: 7.4 nM
